The values below come from US20250333733A1, “NOVEL TARGETS AGAINST OVARIAN CANCER” (UNIVERSITY OF PUERTO RICO, priority 2022, published 2025).

One data set has as its system OVCAR3 cells. In words: Cell viability, Alamar blue, siRNA. Type of data set: cell-based. Particulars: OVCAR3, any siRNA concentration tested, vs NC-siRNA. Here is the method: OVCAR3CIS cells (3.0×10^4 cells/mL) or SKOV3ip1CIS (3.0×10^4 cells/mL) were seeded into 12-well plates. Twenty-four hours later, cells were transfected with 100 nM (final concentration) of each siRNA. The next day, 400 cells (OVCAR3CIS) or 1,000 cells (SKOV3ip1CIS) were seeded into 6-well plates and incubated for seven days, fixed and stained with 0.5% crystal violet in methanol. Colonies of at least 50 cells were counted using a light microscope (CKX41: Olympus, Center Valley, PA, USA) with a total magnification of 40x. For cell viability assays, OVCAR3 and OVCAR3CIS (3.0×10^4 cells/mL) or SKOV3ip1and SKOV3ip1CIS (3.5×10^4 cells/mL) were seeded into 96-well plates, and 24 hours later, siRNA transfection was performed as described above. The next day, the transfection mix was replaced with cisplatin (CIS) (2.5 uM final concentration dissolved in regular cell culture media) and after forty-eight hours, the medium was removed, and Alamar blue dye (Invitrogen, Thermo Fisher Scientific, Eugene, OR, USA) was added following the manufacturer's instructions. Optical density (OD) was measured, and percentages of cell viability were calculated after blank OD subtraction. Untreated cells were assessed as 100% cell viability.

The next data set has as its system CASC10. In words: RT-qPCR of CASC10 expression after siRNA transfection in SKOV3ip1 cells. Type of data set: cell-based, human. The conditions noted are these: SKOV3ip1 cells as printed. As for the experimental part:
SiRNA ON-TARGET plus SMARTpool (a mixture of 4 siRNA as a single tube) and a negative control siRNA (NC-siRNA) (Sigma-Aldrich) were used for transfection studies. CASC10, was targeted by using two siRNAs targeting different regions of the CASC10 RNA (e.g., CASC10-siRNA (1) and CASC10-siRNA (2)). OVCAR3CIS or SKOV3ip1CIS cells were seeded into 12-well plates at 3.0×10^4 cells/mL. The next day, siRNAs were mixed with HiPerfect transfection reagent (Qiagen, Valencia, CA) at a 1:2 ratio (SIRNA: HiPerfect) in serum and antibiotic-free Opti-MEM medium (Gibco) and added to the cells. After twenty-four hours the media was replaced by regular culture media, and cells were cultured and used for further experiments. To assess siRNA transfection efficiency, cells were collected 24 hours after siRNA transfection.
A custom-made 384-well plate containing pre-designed forward and reverse primers was purchased from Bio-Rad (CA, USA). Total RNA was isolated from OVCAR3 and OVCAR3CIS cells using the GenElute Mammalian Total RNA Mini Kit (Millipore-Sigma, MO, USA) following the manufacturer's instructions. […] Fold-changes and cycle threshold (Ct) values were calculated by the instrument's internal software relative to OVCAR3 cells and normalized to B-actin along with controls for gDNA, PCR reaction, RT reaction, and RNA quality.
A general note: Real-time PCR tracks product formation cycle by cycle.

On to “CASC10-siRNA (2): siRNA targeting CASC10 RNA, SEQ ID NO 3 and 4: 5′ GACUCUUGGAUCCAAGUUU(dT)(dT) 3′ / 5′ AAACUUGGAUCCAAGAGUC(dT)(dT) 3′ (chain 1 GACUCUUGGAUCCAAGUUUNN; chain 2 AAACUUGGAUCCAAGAGUCNN; 3' dTdT overhangs, chemistry not fully specified)”, for which the cell viability result in the data set with OVCAR3 cells is listed as “did not significantly reduce cell viability”. For the same substance, the “decrease of CASC10 relative expression” value in the data set with CASC10 worked out at 75%.
